# Test results published in patent publication US20080234297A1, “HSP90 Inhibitors Containing a Zinc Binding Moiety” (priority 2007, published 2008).
# Tests used:
# [1] = system: HDAC (HeLa nuclear extract); assay: HDAC fluorimetric assay kit (AK-500, Biomol), inhibition of HDAC enzymatic activity; format: biochemical; settings: Fluor de Lys substrate, graded IC50
# Method: (b) An In Vitro Assay which Determines the Ability of a Test Compound to Inhibit HDAC Enzymatic Activity.
# HDAC inhibitors were screened using an HDAC fluorimetric assay kit (AK-500, Biomol, Plymouth Meeting, Pa.). Test compounds were dissolved in dimethylsulphoxide (DMSO) to give a 20 mM working stock concentration. Fluorescence was measured on a WALLAC Victor 2 plate reader and reported as relative fluorescence units (RFU). Data were plotted using GraphPad Prism (v4.0a) and IC50's calculated using a sigmoidal dose response curve fitting algorithm. Each assay was setup as follows: Defrosted all kit components and kept on ice until use. Diluted HeLa nuclear extract 1:29 in Assay Buffer (50 mM Tris/Cl, pH 8.0, 137 mM NaCl, 2.7 mM KCl, 1 mM MgCl2). Prepared dilutions of Trichostatin A (TSA, positive control) and tested compounds in assay buffer (5× of final concentration). Diluted Fluor de Lys™ Substrate in assay buffer to 100 uM (50 fold=2× final). Diluted Fluor de Lys™ developer concentrate 20-fold (e.g. 50 μl plus 950 μl Assay Buffer) in cold assay buffer. Second, diluted the 0.2 mM Trichostatin A 100-fold in the 1× Developer (e.g. 10 μl in 1 ml; final Trichostatin A concentration in the 1× Developer=2 μM; final concentration after addition to HDAC/Substrate reaction=1 μM). Added Assay buffer, diluted trichostatin A or test inhibitor to appropriate wells of the microtiter plate. Added diluted HeLa extract or other HDAC sample to all wells except for negative controls. Allowed diluted Fluor de Lys™ Substrate and the samples in the microtiter plate to equilibrate to assay temperature (e.g. 25 or 37° C. Initiated HDAC reactions by adding diluted substrate (25 μl) to each well and mixing thoroughly. Allowed HDAC reactions to proceed for 1 hour and then stopped them by addition of Fluor de Lys™ Developer ([…]). Incubated plate at room temperature (25° C.) for 10-15 min. Read samples in a microtiter-plate reading fluorimeter capable of excitation at a wavelength in the range 350-380 nm and detection of emitted light in the range 440-460 nm.
# (§1) The following TABLE B lists compounds representative of the invention and their activity in HDAC and HSP90 assays. In these assays, the following grading was used: I≧10 μM, 10 μM>II>1 μM, 1 μM>III>0.1 μM, and IV≦0.1 μM for IC50.
# [2] = molecular target: HSP90; assay: Hsp90 chaperone assay (refolding of heat-denatured luciferase); format: biochemical; settings: luminescence readout, graded IC50
# Method: (a) An In Vitro Assay which Determines the Ability of a Test Compound to Inhibit Hsp90 Chaperone Activity.
# The Hsp90 chaperone assay was performed to measure the ability of HSP90 protein to refold the heat-denatured luciferase protein. HSP90 was first incubated with different concentrations of test compounds in denaturation buffer (25 mM Tris, pH7.5, 8 mM MgSO4, 0.01% bovine gamma globulin and 10% glycerol) at room temperature for 30 min. Luciferase protein was added to denaturation mix and incubated at 50° C. for 8 min. The final concentration of HSP90 and luciferase in denaturation mixture were 0.375 μM and 0.125 μM respectively. A 5 μl sample of the denatured mix was diluted into 25 μl of renaturation buffer (25 mM Tris, pH7.5, 8 mM MgSO4, 0.01% bovine gamma globulin and 10% glycerol, 0.5 mM ATP, 2 mM DTT, 5 mM KCl, 0.3 μM HSP70 and 0.15 μM HSP40). The renaturation reaction was incubated at room temperature for 150 min, followed by dilution of 10 μl of the renatured sample into 90 μl of luciferin reagent (Luclite, PerkinElmer Life Science). The mixture was incubated at dark for 5 min before reading the luminescence signal on a TopCount plate reader (PerkinElmer Life Science).
# as §1
melting point,IC50 [1],IC50 [2],Structure (SMILES)
230 °C (dec.),–,–,"Nc1ncnc2c1nc(Sc1cc3c(cc1Br)OCO3)n2CC(=O)NO [Compound 1, 2-(6-amino-8-(6-bromobenzo[d][1,3]dioxol-5-ylthio)-9H-purin-9-yl)-N-hydroxyacetamide]"
–,0.1 to 1 µM,0.1 to 1 µM,"Nc1ncnc2c1nc(Sc1cc3c(cc1Br)OCO3)n2CCCCCC(=O)NO [Compound 5, 6-(6-amino-8-(6-bromobenzo[d][1,3]dioxol-5-ylthio)-9H-purin-9-yl)-N-hydroxyhexanamide]"
–,≤ 0.1 µM,0.1 to 1 µM,"Nc1ncnc2c1nc(Sc1cc3c(cc1Br)OCO3)n2CCCCCCC(=O)NO [Compound 6, 7-(6-amino-8-(6-bromobenzo[d][1,3]dioxol-5-ylthio)-9H-purin-9-yl)-N-hydroxyheptanamide]"
–,≤ 0.1 µM,–,"COc1ccc(I)c(Sc2nc3c(N)ncnc3n2CCCCCCC(=O)NO)c1 [Compound 12, 7-(6-amino-8-(2-iodo-5-methoxyphenylthio)-9H-purin-9-yl)-N-hydroxyheptanamide]"
–,≥ 10 µM,≥ 10 µM,C#CCCCn1c(Sc2cccc(C(=O)NO)c2)nc2c(N)ncnc21 [Compound 13]
–,0.1 to 1 µM,–,"C#CCCCn1c(Sc2cccc(OCC(=O)NO)c2)nc2c(N)ncnc21 [Compound 14, 2-(3-(6-amino-9-(pent-4-ynyl)-9H-purin-8-ylthio)phenoxy)-N-hydroxyacetamide]"
–,≤ 0.1 µM,≥ 10 µM,"C#CCCCn1c(Sc2cccc(OCCCC(=O)NO)c2)nc2c(N)ncnc21 [Compound 16, 4-(3-(6-amino-9-(pent-4-ynyl)-9H-purin-8-ylthio)phenoxy)-N-hydroxybutanamide]"
–,≤ 0.1 µM,≥ 10 µM,"C#CCCCn1c(Sc2cccc(OCCCCCC(=O)NO)c2)nc2c(N)ncnc21 [Compound 18, 6-(3-(6-amino-9-(pent-4-ynyl)-9H-purin-8-ylthio)phenoxy)-N-hydroxyhexanamide]"
–,≤ 0.1 µM,0.1 to 1 µM,"Nc1ncnc2c1nc(Sc1cc3c(cc1Br)OCO3)n2CCNCCCCCC(=O)NO [Compound 23, 6-(2-(6-amino-8-(6-bromobenzo[d][1,3]dioxol-5-ylthio)-9H-purin-9-yl)ethylamino)-N-hydroxyhexanamide]"
–,≤ 0.1 µM,0.1 to 1 µM,"Nc1ncnc2c1nc(Sc1cc3c(cc1Br)OCO3)n2CCNCCCCCCC(=O)NO [Compound 24, 7-(2-(6-amino-8-(6-bromobenzo[d][1,3]dioxol-5-ylthio)-9H-purin-9-yl)ethylamino)-N-hydroxyheptanamide]"
–,≥ 10 µM,≥ 10 µM,"Nc1ncnc2c1nc(Sc1cc3c(cc1Br)OCO3)n2CCOCCCC(=O)NO [Compound 27, 4-(2-(6-amino-8-(6-bromobenzo[d][1,3]dioxol-5-ylthio)-9H-purin-9-yl)ethoxy)-N-hydroxybutanamide]"
–,1 to 10 µM,≥ 10 µM,"Nc1ncnc2c1nc(Sc1cc3c(cc1Br)OCO3)n2CCOCCCCC(=O)NO [Compound 28, 5-(2-(6-amino-8-(6-bromobenzo[d][1,3]dioxol-5-ylthio)-9H-purin-9-yl)ethoxy)-N-hydroxypentanamide]"
–,1 to 10 µM,≥ 10 µM,"Nc1ncnc2c1nc(Sc1cc3c(cc1Br)OCO3)n2CCOCCCCCC(=O)NO [Compound 29, 6-(2-(6-amino-8-(6-bromobenzo[d][1,3]dioxol-5-ylthio)-9H-purin-9-yl)ethoxy)-N-hydroxyhexanamide]"
–,≤ 0.1 µM,≥ 10 µM,"Nc1ncnc2c1nc(Sc1cc3c(cc1Br)OCO3)n2CCOCCCCCCC(=O)NO [Compound 30, 7-(2-(6-amino-8-(6-bromobenzo[d][1,3]dioxol-5-ylthio)-9H-purin-9-yl)ethoxy)-N-hydroxyheptanamide]"
–,≤ 0.1 µM,1 to 10 µM,"Nc1ncnc2c1nc(Sc1cc3c(cc1Cl)OCO3)n2CCCCCCC(=O)NO [Compound 31, 7-(6-amino-8-(6-chlorobenzo[d][1,3]dioxol-5-ylthio)-9H-purin-9-yl)-N-hydroxyheptanamide]"
–,≤ 0.1 µM,≤ 0.1 µM,"Nc1ncnc2c1nc(Sc1cc3c(cc1I)OCO3)n2CCCCCCC(=O)NO [Compound 32, 7-(6-amino-8-(6-iodobenzo[d][1,3]dioxol-5-ylthio)-9H-purin-9-yl)-N-hydroxyheptanamide]"
–,≤ 0.1 µM,1 to 10 µM,"Nc1nccc2c1nc(Sc1cc3c(cc1Cl)OCO3)n2CCCCCCC(=O)NO [Compound 34, 7-(4-amino-2-(6-chlorobenzo[d][1,3]dioxol-5-ylthio)-1H-imidazo[4,5-c]pyridin-1-yl)-N-hydroxyheptanamide]"
–,≤ 0.1 µM,1 to 10 µM,"Nc1nccc2c1nc(Sc1cc3c(cc1Br)OCO3)n2CCCCCCC(=O)NO [Compound 35, 7-(4-amino-2-(6-bromobenzo[d][1,3]dioxol-5-ylthio)-1H-imidazo[4,5-c]pyridin-1-yl)-N-hydroxyheptanamide]"
–,≤ 0.1 µM,0.1 to 1 µM,"Nc1nccc2c1nc(Sc1cc3c(cc1I)OCO3)n2CCCCCCC(=O)NO [Compound 36, 7-(4-amino-2-(6-iodobenzo[d][1,3]dioxol-5-ylthio)-1H-imidazo[4,5-c]pyridin-1-yl)-N-hydroxyheptanamide]"
–,0.1 to 1 µM,0.1 to 1 µM,"Nc1ncnc2c1nc(Sc1cc3c(cc1I)OCO3)n2CCNCCCCCC(=O)NO [Compound 38, 6-(2-(6-amino-8-(6-iodobenzo[d][1,3]dioxol-5-ylthio)-9H-purin-9-yl)ethylamino)-N-hydroxyhexanamide]"
–,≤ 0.1 µM,0.1 to 1 µM,"Nc1ncnc2c1nc(Sc1cc3c(cc1I)OCO3)n2CCNCCCCCCC(=O)NO [Compound 39, 7-(2-(6-amino-8-(6-iodobenzo[d][1,3]dioxol-5-ylthio)-9H-purin-9-yl)ethylamino)-N-hydroxyheptanamide]"
–,≥ 10 µM,≥ 10 µM,Nc1ncnc2c1nc(Sc1cc3c(cc1Br)OCO3)n2CCOCC(=O)NO [Compound 40]
–,≤ 0.1 µM,–,"Nc1ncnc2c1nc(Sc1cc3c(cc1Br)OCO3)n2CCNCCCCCCCC(=O)NO [Compound 41, 8-(2-(6-amino-8-(6-bromobenzo[d][1,3]dioxol-5-ylthio)-9H-purin-9-yl)ethylamino)-N-hydroxyoctanamide]"

Structure (SMILES),melting point,IC50 [1],IC50 [2]
"Nc1ncnc2c1nc(Sc1cc3c(cc1Br)OCO3)n2CCNCCC(=O)NO [Compound 20, 3-(2-(6-amino-8-(6-bromobenzo[d][1,3]dioxol-5-ylthio)-9H-purin-9-yl)ethylamino)-N-hydroxypropanamide]",–,≥ 10 µM,0.1 to 1 µM
Nc1ncnc2c1nc(Sc1cc3c(cc1Br)OCO3)n2CCNCC(=O)NO [Compound 33],–,≥ 10 µM,0.1 to 1 µM
Nc1ncnc2c1nc(Sc1cc3c(cc1I)OCO3)n2CCNCC(=O)NO [Compound 37],–,≥ 10 µM,0.1 to 1 µM
